Experimental data published in US4342780A, “Method of depleting endogenous monoamines” (Merrell-Toraude et Cie, priority 1981, dated 1982).

How the values were obtained:
AADC [1] = biological target: T1, AADC (Sus scrofa, UniProt P80041); experiment: In vitro AADC inhibition: time of 90% inactivation (14CO2 trapping, DL-[1-14C]-dopa substrate); format: biochemical, hog; design: key to RATING: ++++: The relative activities of the compounds are rated by the given number of "plus" signs; +++: The relative activities of the compounds are rated by the given number of "plus" signs; 0-+: The relative activities of the compounds are rated by the given number of "plus" signs; details: for TIME OF 90% INACTIVATION: pH 7.4, 37° C.; for RATING: relative activity
T1 sequence (P80041 1-486): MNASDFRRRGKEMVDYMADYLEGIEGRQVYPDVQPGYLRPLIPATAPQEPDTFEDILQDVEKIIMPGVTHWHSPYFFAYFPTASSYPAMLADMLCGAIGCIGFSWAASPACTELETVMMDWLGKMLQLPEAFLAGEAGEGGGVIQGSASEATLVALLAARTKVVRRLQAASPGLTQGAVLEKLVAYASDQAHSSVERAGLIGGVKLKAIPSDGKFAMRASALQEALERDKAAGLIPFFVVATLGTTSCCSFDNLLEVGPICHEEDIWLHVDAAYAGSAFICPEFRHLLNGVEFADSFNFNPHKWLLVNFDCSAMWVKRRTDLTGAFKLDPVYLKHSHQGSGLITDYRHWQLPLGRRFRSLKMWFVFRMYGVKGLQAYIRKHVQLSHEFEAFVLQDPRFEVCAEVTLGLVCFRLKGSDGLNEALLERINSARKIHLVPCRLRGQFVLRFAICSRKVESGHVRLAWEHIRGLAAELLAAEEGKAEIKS
Method: AADC can be purified from hog kidney by the general method of J. Christenson et al. Archs. Biochem. Biophys., 141, 356 (1970) and G. Lancaster et al., Can. J. Biochem., 50, 791 (1972), and the specific activity of the enzyme is determined by the ^14 CO2 trapping method using DL-[1-^14 C]-dopa as the substrate (see Christenson et al.). One unit of activity is defined as the total amount of enzyme which produces 1 n mol of CO2 per minute, with DL-[1-^14 C]-dopa as substrate.
To 100 μl of 50 mM-phosphate buffer pH 7.4 containing 100 mM-mercapto-ethanol are added 5 μl of an aqueous solution containing the test compound at the desired concentration and 50 μl of an aqueous solution containing 2 units of AADC. The mixture is incubated at 37° C. and 20 μl aliquots are removed at various times. The AADC activity remaining in each aliquot is measured by the CO2 trapping method of Christenson.
The relative activities of the compounds are rated by the given number of "plus" signs.

AADC [2] = experiment: Ex vivo AADC activity in organs of mice after repeated i.p. doses (Table II); design: species or system mice (Swiss Albino); details: three days, 12 h after 6th dose, vs control
Method: (§1) The test animals (e.g. mice or rats) are given the test compound in a suitable vehicle, either orally or by injection, each day over the period of time desired. The animals are kept on a constant time cycle, and body weights are measured daily. The animals are sacrificed by decapitation 12 to 24 hours after receiving the last dose of the test compound. Control animals receive the vehicle alone.
(§2) Immediately after death, the organs (brain, heart, and kidney) are removed and homogenized either in 50 ml phosphate buffer pH 6.8 for AADC determination or in ice-cold 0.4 M HClO4 containing 0.05% (w/v) EDTA and 0.1% (w/v) sodium bisulfite for catecholamine determination. AADC activity is determined by the ^14 CO2 trapping method of J. Christenson, supra (see Example 14) using DL-[1-^14 C]-dopa as the substrate. Catecholamines are determined by centrifuging the homogenate, adding the supernatant to alumina buffered to pH 8.0-8.4 to adsorb the catecholamines, re-extracting the catecholamines from the alumina with 0.2 M HClO4 and determining the catecholamines in the extracts using known procedures, such as by reversed-phase ion-pair HPLC with electrochemical detection.
(§3) Table II, shown below, sets forth the results obtained by testing particular compounds of Formula I in the above-described procedure in mice (Swiss Albino) after i.p. administration of the compound twice daily for three days: […]

[3] = tested on: catecholamine content (norepinephrine, dopamine); experiment: Catecholamine content in organs of mice after repeated i.p. doses (Table II); format: in vivo, mice (Swiss Albino); details: three days, 12 h after 6th dose, vs control
Method: as §1, §2, §3

[4] = Deaths in mice after repeated i.p. doses (Table II footnotes); format: in vivo, mice (Swiss Albino); details: 100 mg/kg i.p. twice daily, three days; number dead of animals
Method: as §1, §3

AADC [5] = experiment: AADC inhibition in organs of fasted rats after a single dose; format: in vivo; details: 16 h
Method: as §1, §2
(§4) In the brain, doses of 10 mg/kg and 200 mg/kg produced a 10% reduction and a 70-80% reduction of AADC activity, respectively. […] In the heart, no reduction of norepinephrine is noted up to a dose of 200 mg/kg. When tested after multiple administration of 10, 25, or 50 mg/kg given daily for six days in rats sacrificed 24 hours after the sixth dose, the compound produced a 50% decrease in brain norephinephrine at a dose of 10 mg/kg (daily). […] Serotonin (5-HT) levels, as assessed by standard techniques, are not altered in the brain even at the highest dose tested. Heart norepinephrine is reduced by only 20% at the highest dose.

[6] = tested on: catecholamine levels (norepinephrine, dopamine); experiment: Catecholamine levels in organs of fasted rats after a single dose; format: in vivo; details: 16 h
Method: as §1, §2, §4

[7] = tested on: catecholamine levels (norepinephrine, dopamine) and serotonin (5-HT); experiment: Catecholamine and serotonin levels in organs of rats after daily doses for six days; format: in vivo
Method: as §1, §2, §4

[8] = tested on: endogenous catecholamine and 5-HT levels; experiment: Effect on endogenous catecholamine and 5-HT levels in brain and heart (general statement); format: in vivo
[9] = tested on: catecholamine content (norepinephrine, dopamine); experiment: Catecholamine content in organs of rats after oral administration once daily for 15 days (Table III); format: in vivo, rats (Sprague-Dawley); details: 24 h after 15th dose, vs control; for % CHANGE Brain Dopamine: * not significant
Method: as §1, §2
Table III gives the results obtained by testing particular compounds of Formula I in rats (Sprague-Dawley) after oral administration of the test compound once daily for 15 days. AADC activity was not determined.

[10] = tested on: catecholamine levels (dopamine, noradrenaline); experiment: Effect of dopamine injection on catecholamine levels in heart and brain of mice treated with test compound (Table VI); format: in vivo, Male albino mice
Method: Saline solution is used as a control. The mice are sacrificed and the catecholamines, dopamine and noradrenaline, and serotonin (5-hydroxytryptamine) are determined by reverse-phase ion-pair high pressure liquid chromatography using electrochemical detection. […] Twelve hours after the second dose, one group of animals received an i.p. injection of 50 mg/kg of dopamine-HCl (Sigma, Chem. Co), the other group received saline instead. Three hours after the dopamine injection, the animals were killed and catecholamines were measured in heart and brain as described in Example 18.

[11] = 10 mg/kg i.p. twice daily, * not significant
[12] = 10 mg/kg i.p. twice daily, * not significant (-25*, -7*)
[13] = 10 mg/kg i.p. twice daily, * not significant (-25*, -9*)
[14] = 100 mg/kg i.p. twice daily, * not significant (-35*)
[15] = 10 mg/kg oral once daily 15 days
[16] = 20 mg/kg oral once daily 15 days
[17] = 30 mg/kg oral once daily 15 days

TIME OF 90% INACTIVATION (AADC [1]; CONC. 10 μM) | RATING (AADC [1]; CONC. 10 μM) | Structure (SMILES) | TIME OF 90% INACTIVATION (AADC [1]; CONC. 100 μM) | RATING (AADC [1]; CONC. 100 μM) | % CHANGE AADC Brain (AADC [2]; 10 mg/kg i.p. twice daily) | % CHANGE AADC Kidney (AADC [2]; 10 mg/kg i.p. twice daily) | % CHANGE AADC Brain (AADC [2]; 100 mg/kg i.p. twice daily) | % CHANGE AADC Kidney (AADC [2]; 100 mg/kg i.p. twice daily) | % CHANGE NOREPINEPHRINE Brain [3, 11] | % CHANGE NOREPINEPHRINE Heart [3, 12] | % CHANGE DOPAMINE Brain [3, 13] | % CHANGE NOREPINEPHRINE Brain ([3]; 100 mg/kg i.p. twice daily) | % CHANGE NOREPINEPHRINE Heart ([3]; 100 mg/kg i.p. twice daily) | % CHANGE DOPAMINE Brain [3, 14] | % CHANGE Brain Norepinephrine [9, 15] | % CHANGE Heart Norepinephrine [9, 15] | % CHANGE Brain Dopamine [9, 15] | % CHANGE Brain Norepinephrine [9, 16] | % CHANGE Heart Norepinephrine [9, 16] | % CHANGE Brain Dopamine [9, 16] | other results
– | – | Cc1cccc(CC(N)(CF)C(=O)O)c1O (stereo not drawn) [2-OH3-methyl phenyl, 2-Amino-2-fluoromethyl-3-(2-hydroxy-3-methylphenyl)propionic acid] | 1 min | +++ | -52% | -84% | -94% | -98% | -27% | -41% | -20% | -47% | -68% | -24% | – | – | – | – | – | – | dead [4]: 1/5
– | – | NC(CF)(Cc1cccc(O)c1)C(=O)O (stereo not drawn) [Example 3-OH-phenyl, 2-Amino-2-fluoromethyl-3-(3-hydroxyphenyl)propionic acid] | 4 min | +++ | -80% | -78% | -95% | -96% | -34% | 0% | 0% | -77% | -49% | -75% | – | – | – | – | – | – | –
– | – | COC(=O)C(N)(CF)Cc1ccc(O)cc1 (stereo not drawn) [Methyl 2-amino-2-fluoromethyl-3-(4-hydroxyphenyl)propionate] | – | – | – | – | – | – | – | – | – | – | – | – | – | – | – | – | – | – | reduction of AADC activity in the brain (AADC [5]; 10 mg/kg single dose): 10%; AADC activity in kidney, liver, and adrenals (AADC [5]; 50 mg/kg single dose): marked decrease; AADC inhibition in kidney, liver, and adrenals (AADC [5]; 100 mg/kg single dose): Complete inhibition; reduction of AADC activity in the brain (AADC [5]; 200 mg/kg single dose): 70-80%; AADC activity in the heart (AADC [5]; up to 200 mg/kg single dose): not reduced significantly; Brain norepinephrine decrease ([6]; 10 mg/kg single dose): 15-20%; dopamine decrease (brain) ([6]; 50 mg/kg single dose): decreased significantly; Brain norepinephrine decrease ([6]; 200 mg/kg single dose): 50%; dopamine decrease (brain) ([6]; 200 mg/kg single dose): 75%; reduction of norepinephrine in the heart ([6]; up to 200 mg/kg single dose): no reduction; decrease in brain norepinephrine ([7]; 10 mg/kg daily for six days, 24 h after sixth dose): 50%; Brain dopamine decrease ([7]; 50 mg/kg daily for six days, 24 h after sixth dose): 50%; decrease in brain norepinephrine, response at higher doses ([7]; 25 or 50 mg/kg daily for six days (above 10 mg/kg), 24 h after sixth dose): do not give an additional response; Brain dopamine, effect at lower doses ([7]; below 50 mg/kg (10, 25) daily for six days, 24 h after sixth dose): no significant effect; Serotonin (5-HT) levels in the brain ([7]; even at the highest dose tested, daily for six days): not altered; Heart norepinephrine reduction ([7]; highest dose (50 mg/kg) daily for six days, 24 h after sixth dose): 20%; endogenous 5-HT levels in the brain [8]: not altered; endogenous catecholamine levels in brain and heart [8]: lower engenous catecholamine levels in the brain but not in the heart
3 min | ++++ | NC(CF)(Cc1cc(O)ccc1O)C(=O)O (stereo not drawn) [2,5-diOH-phenyl, 2-Amino-2-fluoromethyl-3-(2,5-dihydroxyphenyl)propionic acid] | – | – | -58% | -78% | -99% | -87% | 0% | -25% | 0% | -90% | -76% | 90% | -16% | -31% | -1% | -32% | -38% | -2% | % CHANGE Brain Norepinephrine [9, 17]: -37%; % CHANGE Heart Norepinephrine [9, 17]: -53%; % CHANGE Brain Dopamine [9, 17]: -5%
1 to 2 min | ++++ | NC(CF)(Cc1cccc(O)c1O)C(=O)O (stereo not drawn) [2,3-diOH-phenyl, 2-Amino-2-fluoromethyl-3-(2,3-dihydroxyphenyl)propionic acid] | – | – | -73% | -90% | -99% | -90% | -33% | -33% | -25% | -90% | -90% | -93% | -11% | -38% | 0% | -17% | -48% | +3% | % CHANGE Brain Norepinephrine [9, 17]: -27%; % CHANGE Heart Norepinephrine [9, 17]: -79%; % CHANGE Brain Dopamine [9, 17]: -10%
– | – | NCCc1ccc(O)c(O)c1 [dopamine, reference compound] | – | – | – | – | – | – | – | – | – | – | – | – | – | – | – | – | – | – | depletion of noradrenaline in the heart achieved by the test-compound ([10]; effect of dopamine injection 50 mg/kg i.p.): reversed totally; depletion of amines in the central nervous system ([10]; effect of exogenous dopamine 50 mg/kg i.p.): not affected
